In article PMC10821025, “Bioprospection of Tenellins Produced by the Entomopathogenic Fungus Beauveria neobassiana” (Journal of Fungi, 2024):
In brackets after ≈: the same amount, converted by molar mass.

What was measured:
[1] = system: mouse fibroblasts (L-929); assay: Cytotoxicity assay, L929; format: cell-based; details: L929 (fibroblast), 5 days of incubation
Protocol: (§1) The cytotoxicity of isolated compounds was determined as previously described over a concentration range between […] against two mammalian cell lines: mouse fibroblasts (L-929) and human endocervical adenocarcinoma (KB-3.1). […] Following 5 days of incubation, we determined the minimum concentration of the tested compounds required to achieve 50% growth inhibition, expressed as IC50 values.

[2] = system: human endocervical adenocarcinoma (KB-3.1); assay: Cytotoxicity assay, KB3.1; format: cell-based; details: KB3.1 (endocervical adenocarcinoma), 5 days of incubation
Protocol: as §1

[3] = system: Acinetobacter baumanii [DSM 30008]; assay: Serial dilution assay (MIC); format: cell-based; details: Acinetobacter baumannii, DSM30008
Protocol: (§2) All isolated compounds were assessed for their antimicrobial activity using a serial dilution assay over a concentration range from 67 to 0.5 µg/mL following the previously described protocols. In brief, the antimicrobial activity of all isolated metabolites was assessed by determining their minimum inhibitory concentration (MIC) against a range of different pathogens, including five fungal species: Candida albicans [DSM 1665], Mucor hiemalis [DSM 2656], Schizosaccharomyces pombe [DSM 70572], Rhodotorula glutinis [DSM 10134], and Wickerhamomyces anomalus [DSM 6766], as well as various Gram-positive: Staphylococcus aureus [DSM 346], Bacillus subtilis [DSM 10], Mycolicibacterium smegmatis [ATCC 700084], and Gram-negative bacteria: Acinetobacter baumanii [DSM 30008], Escherichia coli [DSM 1116], Chromobacterium violaceum [DSM 30191], and Pseudomonas aeruginosa [PA14]. In our experiments, gentamicin served as the positive control against most bacteria, while nystatin acted as the positive control against all fungi. For specific microorganisms, namely A. baumannii, B. subtilis, and M. smegmatis, ciprofloxacin, oxytetracycline, and kanamycin were used as positive controls, respectively.

[4] = system: Bacillus subtilis [DSM 10]; assay: Serial dilution assay (MIC); format: cell-based; details: DSM10, read-out: MIC
Protocol: as §2

[5] = system: Candida albicans [DSM 1665]; assay: Serial dilution assay (MIC); format: cell-based; details: DSM1665, read-out: MIC
Protocol: as §2

[6] = system: Chromobacterium violaceum [DSM 30191]; assay: Serial dilution assay (MIC); format: cell-based; details: DSM30191, read-out: MIC
Protocol: as §2

[7] = system: Escherichia coli [DSM 1116]; assay: Serial dilution assay (MIC); format: cell-based; details: DSM1116, read-out: MIC
Protocol: as §2

[8] = system: Mucor hiemalis [DSM 2656]; assay: Serial dilution assay (MIC); format: cell-based; details: DSM2656, read-out: MIC
Protocol: as §2

[9] = system: Mycolicibacterium smegmatis [ATCC 700084]; assay: Serial dilution assay (MIC); format: cell-based; details: Mycolicibacterium smegmatis, ATCC700084; Mycobacterium smegmatis; read-out: MIC
Protocol: as §2

[10] = system: Pseudomonas aeruginosa [PA14]; assay: Serial dilution assay (MIC); format: cell-based; details: read-out: MIC
Protocol: as §2

[11] = system: Rhodotorula glutinis [DSM 10134]; assay: Serial dilution assay (MIC); format: cell-based; details: DSM10134
Protocol: as §2

[12] = system: Schizosaccharomyces pombe [DSM 70572]; assay: Serial dilution assay (MIC); format: cell-based; details: DSM70572
Protocol: as §2

[13] = system: Staphylococcus aureus [DSM 346]; assay: Serial dilution assay (MIC); format: cell-based; details: DSM346, read-out: MIC
Protocol: as §2

[14] = system: Wickerhamomyces anomalus [DSM 6766]; assay: Serial dilution assay (MIC); format: cell-based; details: Hansenula anomala, DSM6766
Protocol: as §2

[15] = system: S. aureus (DSM 1104) biofilm formation; assay: Biofilm inhibition assay (Crystal Violet staining); format: cell-based, Staphylococcus aureus; details: for inhibitory activity on S. aureus biofilm formation (in words): 125–7.8 µg/mL; for Biofilm inhibition (% ± SD): S. aureus (DSM 1104); for Biofilm inhibition (% ± SD) / inhibition at 7.8 µg/mL: 7.8 µg/ml; for inhibition at 7.8 µg/mL / inhibition at 15.62 µg/mL / inhibition at 31.25 µg/mL / inhibition at 62.5 µg/mL / inhibition at 125 µg/mL: Staphylococcus aureus, DSM1104, S. aureus (DSM 1104), read-out: Biofilm inhibition (% ± SD)
Protocol: The compounds were evaluated for their ability to inhibit S. aureus (DSM 1104) biofilm formation, following the established procedure. Briefly, serially diluted compounds (125–7.8 µg/mL) were co-incubated with S. aureus in 96-well plates in CASO medium supplemented with 4% of glucose (see Supplementary Materials). Biofilm inhibition was assessed by using Crystal Violet staining after […], with microporenic acid A serving as a positive control and methanol as solvent control.
Biofilm inhibition assays were condu cted acco rding to th e methodolo g y previousl y described (Soliga et al., 2021), targeting the inhibition of biofilm formation in Staphylococcus aureus […]
S. aureus were cultured i n LB and CASO medium at 37 °C for 18 h, respect ivel y, in a shaker at 120 rpm after being thawed from a -20 °C stock solution. The culture's optical densit y at 600 nm (OD600) was measured and adjusted to a 0.1 McFarland standard in M63 minimal medium supplemented with necessar y nutrients and CASO medi um with 4% glucose for S. aureus, respectively. Microtiter plates were loaded with 150 µL of the bacterial suspension containing s eriall y diluted test compounds (7.8 -125 µg/m L) and incubated for 24 h at 37 °C. The evaluation of biofilm inhibition was performed by staining the biofilm with 0.1% cr ystal violet (CV). After staining, the plates were washed, and the biofilm dissolved in 95% ethanol. The absorbance of the dissolved biofilm was measured at 530 nm using a plat e reader. Negative control involved methanol (2.5%) while microporenic acid A at a concentration range of 7.8 to 125 µg/mL were used as the positive control for S. aureus (Chepkirui et al., 2018). All experiments were performed three times, and the standard deviation (SD) was maintained at or below 15% for S. aureus .
Differences between sam ples and the control grou p were determined b y a t wo-tailed Student’s t-test. Statistical significan ce was defined as p < 0.01. Anal ysis was carri ed out using GraphPad Prism 9® (GraphPad Software, San Diego, CA, USA). […]

[16] = system: lung cancer (A-549) cell line; assay: Cytotoxicity assay, A549; format: cell-based; details: Homo sapiens, 120 h; A549 (lung), 5 days of incubation; read-out: IC50
[17] = system: breast cancer (MCF-7) cell line; assay: Cytotoxicity assay, MCF-7; format: cell-based; details: Homo sapiens, MCF7, 120 h; MCF-7 (breast), 5 days of incubation; read-out: IC50
S. aureus = system: S. aureus; design: method as in doi:10.1016/j.phytol.2021.03.003; details: cited from earlier work
Curvularia lunata = system: Curvularia lunata; design: method as in doi:10.1016/j.phytol.2021.03.003; details: cited from earlier work

Row | MIC [3] [µg/mL] | MIC [4] [µg/mL] | MIC [5] [µg/mL] | MIC [6] [µg/mL] | MIC [7] [µg/mL] | MIC [8] [µg/mL] | MIC [9] [µg/mL] | MIC [10] [µg/mL] | MIC [11] [µg/mL] | MIC [12] [µg/mL] | MIC [13] [µg/mL] | MIC [14] [µg/mL] | SMILES | IC50 ([1]; Mus musculus, L929, 120 h) [µM] | IC50 ([2]; Homo sapiens, KB 3-1, 120 h) [µM] | inhibitory activity on S. aureus biofilm formation (in words) [15] | inhibition at 7.8 µg/mL [15] [%] | inhibition at 15.62 µg/mL [15] [%] | inhibition at 31.25 µg/mL [15] [%] | inhibition at 62.5 µg/mL [15] [%] | inhibition at 125 µg/mL [15] [%] | also measured
1 | > 67 | > 67 | > 67 | > 67 | > 67 | > 67 | > 67 | > 67 | > 67 | > 67 | > 67 | > 67 | CCC(C)/C=C(C)/C=C/C(=O)C1=C(O)[C@H]([C@H](O)c2ccc(O)cc2)NC1=O (stereo partly shown) [Compound 2, Prototenellin D] | 70.1 | 64.7 | promising activities in a dose-dependent manner | 53 ± 7 | 56 ± 8 | 80 ± 10 | 83 ± 9 | 84 ± 17 | IC50 (µM) [1]: weak or no activity; IC50 (µM) [2]: weak or no activity; Biofilm inhibition (% ± SD) ([15]; listed as prototenellin D (2)): more than 50%
2 | > 67 | 66.6 (≈ 173 µM) | > 67 | > 67 | > 67 | > 67 | > 67 | > 67 | > 67 | > 67 | 66.6 (≈ 173 µM) | > 67 | CCC(/C=C(C)/C=C/C(=O)c1c(O)c(-c2ccc(O)cc2)cn(O)c1=O)CO (stereo not shown) [Compound 5, 15-Hydroxytenellin] | 4.9 to 6.8 | 4.9 to 6.8 |  |  | 47 ± 12 | 78 ± 5 | 85 ± 2 | 86 ± 1 | IC50 [1]: 6.8 µM; IC50 [2]: 6 µM; IC50 [16]: 2.6 µM; IC50 [17]: 8.1 µM

Row | SMILES | MIC [3] [µg/mL] | MIC [4] [µg/mL] | MIC [5] [µg/mL] | MIC [6] [µg/mL] | MIC [7] [µg/mL] | MIC [8] [µg/mL] | MIC [9] [µg/mL] | MIC [10] [µg/mL] | MIC [11] [µg/mL] | MIC [12] [µg/mL] | MIC [13] [µg/mL] | MIC [14] [µg/mL] | IC50 ([1]; Mus musculus, L929, 120 h) [µM] | IC50 ([2]; Homo sapiens, KB 3-1, 120 h) [µM] | inhibitory activity on S. aureus biofilm formation (in words) [15] | inhibition at 7.8 µg/mL [15] [%] | inhibition at 15.62 µg/mL [15] [%] | inhibition at 31.25 µg/mL [15] [%] | inhibition at 62.5 µg/mL [15] [%] | inhibition at 125 µg/mL [15] [%] | also measured
3 | CCC(C)/C=C(C)/C=C/C(=O)c1c(O)c(-c2ccc(O)cc2)cn(O)c1=O (stereo not shown) [Compound 4, Tenellin] | > 67 | 8.3 (≈ 22.5 µM) | 66.6 (≈ 180 µM) | > 67 | > 67 | 66.6 (≈ 180 µM) | > 67 | > 67 | > 67 | > 67 | 16.6 (≈ 44.9 µM) | > 67 | 0.79 | 0.79 | promising activities in a dose-dependent manner | 36 ± 13 | 51 ± 19 | 73 ± 15 | 80 ± 4 | 78 ± 5 | IC50 [16]: 0.24 µM; IC50 [17]: 2 µM; Biofilm inhibition (% ± SD) ([15]; listed as tenellin (4)): ca. 30%; MIC (S. aureus): 6.25 µg/mL (≈ 16.9 µM); MIC (Curvularia lunata): 3.13 µg/mL (≈ 8.47 µM)
